What all share (test): radiometric filter-binding kinase assay
The target of assay [1] is MAPK14 (human) (UniProt Q16539). The settings on record: compound 10.0 µM; ATP 50 µM.
For assay [2], the system named is AKT1 (human), P31749 [S473D]. The settings on record: compound 10.0 µM; ATP 5 µM.
Assay [3] has as its target PKN2 (human) (UniProt Q16513). The settings on record: compound 10.0 µM; ATP 5 µM.
The test system of assay [4] is SRC (chicken). The settings on record: ATP 50 µM, accession and sequence are those of the human protein.
Assay [5] concerns the target MAPK9 (human) (UniProt P45984). The settings on record: compound 25.0 µM; ATP 20 µM.
For assay [6], the target named is CSNK2A1 or CSNK2A2 (human) (UniProt P19784+P68400). The following applies: compound 1.0 µM; ATP 5 µM.
Assay [7] concerns the target MAPK11 (human) (UniProt Q15759). The settings on record: compound 1.0 µM; ATP 20 µM.
Assay [8] has as its target PAK7 (human) (UniProt Q9P286). The settings on record: compound 1.0 µM; ATP 20 µM.
Assay [9] addresses PDPK1 (human) (UniProt O15530). The following applies: compound 1.0 µM.
Assay [10] addresses PHKG1 or PHKG2 (human) (UniProt P15735+Q16816). The following applies: compound 1.0 µM; ATP 50 µM.
Assay [11] addresses PRKCG (human) (UniProt P05129). The following applies: compound 1.0 µM; ATP 5 µM.
In assay [12] the target is CSNK1D (human) (UniProt P48730). The following applies: compound 1.0 µM; ATP 20 µM.

Chain of PDPK1 (human) (O15530 whole entry, looked up): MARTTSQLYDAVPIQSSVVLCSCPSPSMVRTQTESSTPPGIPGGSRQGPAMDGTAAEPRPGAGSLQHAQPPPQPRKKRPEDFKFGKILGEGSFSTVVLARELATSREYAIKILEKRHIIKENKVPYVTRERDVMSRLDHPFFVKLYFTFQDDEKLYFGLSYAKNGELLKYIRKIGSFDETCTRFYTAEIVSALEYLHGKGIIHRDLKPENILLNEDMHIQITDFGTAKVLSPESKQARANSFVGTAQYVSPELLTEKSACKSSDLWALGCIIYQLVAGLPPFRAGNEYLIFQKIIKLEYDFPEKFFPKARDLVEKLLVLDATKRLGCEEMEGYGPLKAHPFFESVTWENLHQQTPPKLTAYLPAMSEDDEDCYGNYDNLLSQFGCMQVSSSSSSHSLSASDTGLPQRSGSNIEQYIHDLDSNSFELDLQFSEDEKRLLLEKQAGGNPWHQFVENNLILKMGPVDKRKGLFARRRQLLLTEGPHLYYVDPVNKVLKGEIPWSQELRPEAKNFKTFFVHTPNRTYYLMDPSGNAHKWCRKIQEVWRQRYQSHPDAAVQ
Chain of MAPK14 (human) (Q16539 whole entry, looked up): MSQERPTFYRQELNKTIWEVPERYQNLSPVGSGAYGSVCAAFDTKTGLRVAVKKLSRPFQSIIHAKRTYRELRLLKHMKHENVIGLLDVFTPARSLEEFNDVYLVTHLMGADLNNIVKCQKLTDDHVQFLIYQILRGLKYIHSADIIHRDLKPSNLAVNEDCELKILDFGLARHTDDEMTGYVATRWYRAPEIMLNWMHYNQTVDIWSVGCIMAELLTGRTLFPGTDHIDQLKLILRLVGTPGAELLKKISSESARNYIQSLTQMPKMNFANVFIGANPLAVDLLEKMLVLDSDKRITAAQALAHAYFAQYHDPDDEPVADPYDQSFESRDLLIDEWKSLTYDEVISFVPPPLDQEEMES
Chain of PAK7 (human) (Q9P286 whole entry, looked up): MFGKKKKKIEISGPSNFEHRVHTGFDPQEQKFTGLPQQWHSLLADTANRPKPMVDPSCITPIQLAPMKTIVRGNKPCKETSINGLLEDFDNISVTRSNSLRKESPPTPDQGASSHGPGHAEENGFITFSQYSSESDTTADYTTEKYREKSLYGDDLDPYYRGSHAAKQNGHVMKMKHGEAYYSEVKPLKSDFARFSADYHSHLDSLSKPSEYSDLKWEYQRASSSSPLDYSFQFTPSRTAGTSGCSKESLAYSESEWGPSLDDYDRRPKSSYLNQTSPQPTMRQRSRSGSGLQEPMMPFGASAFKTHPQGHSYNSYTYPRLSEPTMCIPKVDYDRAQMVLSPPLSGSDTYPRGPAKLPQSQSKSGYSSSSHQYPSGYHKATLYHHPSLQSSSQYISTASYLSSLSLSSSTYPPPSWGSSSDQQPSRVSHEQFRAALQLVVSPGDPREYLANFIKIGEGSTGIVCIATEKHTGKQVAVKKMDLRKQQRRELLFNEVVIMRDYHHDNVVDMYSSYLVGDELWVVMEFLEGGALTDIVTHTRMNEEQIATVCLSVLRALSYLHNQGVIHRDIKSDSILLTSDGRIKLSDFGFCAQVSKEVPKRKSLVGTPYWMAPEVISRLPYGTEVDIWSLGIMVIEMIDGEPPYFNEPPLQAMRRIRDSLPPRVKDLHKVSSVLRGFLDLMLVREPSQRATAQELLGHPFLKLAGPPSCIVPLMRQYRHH
Chain of PHKG1 or PHKG2 (human) (P15735 whole entry, looked up): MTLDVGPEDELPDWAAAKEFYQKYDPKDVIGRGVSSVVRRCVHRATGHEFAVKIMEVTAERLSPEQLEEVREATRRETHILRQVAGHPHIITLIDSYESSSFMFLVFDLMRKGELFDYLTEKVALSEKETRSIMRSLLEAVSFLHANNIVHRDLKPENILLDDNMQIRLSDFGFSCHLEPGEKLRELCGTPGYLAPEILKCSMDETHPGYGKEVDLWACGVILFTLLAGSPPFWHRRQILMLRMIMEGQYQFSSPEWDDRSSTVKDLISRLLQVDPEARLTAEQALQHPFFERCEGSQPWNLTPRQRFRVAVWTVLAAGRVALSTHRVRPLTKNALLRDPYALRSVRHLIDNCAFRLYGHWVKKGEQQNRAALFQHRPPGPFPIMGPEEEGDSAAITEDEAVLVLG
Chain of PHKG1 or PHKG2 (human) (Q16816 whole entry, looked up): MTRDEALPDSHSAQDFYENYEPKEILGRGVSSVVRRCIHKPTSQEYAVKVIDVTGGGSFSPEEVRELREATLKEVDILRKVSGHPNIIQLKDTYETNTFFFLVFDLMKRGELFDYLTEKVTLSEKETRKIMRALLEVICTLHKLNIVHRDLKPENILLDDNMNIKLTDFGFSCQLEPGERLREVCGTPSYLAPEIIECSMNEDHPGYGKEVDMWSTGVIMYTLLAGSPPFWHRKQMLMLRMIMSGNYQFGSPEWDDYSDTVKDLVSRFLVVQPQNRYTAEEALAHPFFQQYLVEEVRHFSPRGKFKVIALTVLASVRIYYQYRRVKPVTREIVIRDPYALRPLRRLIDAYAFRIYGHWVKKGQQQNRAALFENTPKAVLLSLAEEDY
Chain of PKN2 (human) (Q16513 whole entry, looked up): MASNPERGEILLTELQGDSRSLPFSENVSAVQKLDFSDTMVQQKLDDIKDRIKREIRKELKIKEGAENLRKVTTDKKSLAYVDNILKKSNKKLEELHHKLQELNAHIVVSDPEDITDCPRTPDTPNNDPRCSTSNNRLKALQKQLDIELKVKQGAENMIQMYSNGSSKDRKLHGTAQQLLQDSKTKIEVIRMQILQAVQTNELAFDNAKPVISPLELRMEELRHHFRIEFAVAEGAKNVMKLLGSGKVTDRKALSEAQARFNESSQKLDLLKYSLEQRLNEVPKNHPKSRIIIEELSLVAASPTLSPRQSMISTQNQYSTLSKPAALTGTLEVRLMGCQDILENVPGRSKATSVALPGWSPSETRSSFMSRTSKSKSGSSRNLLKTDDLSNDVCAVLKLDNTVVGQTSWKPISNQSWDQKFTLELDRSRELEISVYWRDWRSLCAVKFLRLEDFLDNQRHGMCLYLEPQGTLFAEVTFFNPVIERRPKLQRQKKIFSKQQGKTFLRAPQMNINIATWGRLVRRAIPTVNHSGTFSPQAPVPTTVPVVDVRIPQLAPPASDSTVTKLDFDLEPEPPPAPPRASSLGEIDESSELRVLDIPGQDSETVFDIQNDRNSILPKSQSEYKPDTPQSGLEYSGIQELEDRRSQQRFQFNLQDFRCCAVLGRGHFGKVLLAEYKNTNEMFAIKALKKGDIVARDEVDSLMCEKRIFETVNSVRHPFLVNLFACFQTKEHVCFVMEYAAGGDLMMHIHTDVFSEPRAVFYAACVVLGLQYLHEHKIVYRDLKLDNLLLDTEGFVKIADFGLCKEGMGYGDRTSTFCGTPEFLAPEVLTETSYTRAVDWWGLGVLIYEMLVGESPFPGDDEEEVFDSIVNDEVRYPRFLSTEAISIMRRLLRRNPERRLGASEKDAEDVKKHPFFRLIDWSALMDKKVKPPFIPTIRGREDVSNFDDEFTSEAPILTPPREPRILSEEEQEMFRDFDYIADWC
Chain of MAPK9 (human) (P45984 whole entry, looked up): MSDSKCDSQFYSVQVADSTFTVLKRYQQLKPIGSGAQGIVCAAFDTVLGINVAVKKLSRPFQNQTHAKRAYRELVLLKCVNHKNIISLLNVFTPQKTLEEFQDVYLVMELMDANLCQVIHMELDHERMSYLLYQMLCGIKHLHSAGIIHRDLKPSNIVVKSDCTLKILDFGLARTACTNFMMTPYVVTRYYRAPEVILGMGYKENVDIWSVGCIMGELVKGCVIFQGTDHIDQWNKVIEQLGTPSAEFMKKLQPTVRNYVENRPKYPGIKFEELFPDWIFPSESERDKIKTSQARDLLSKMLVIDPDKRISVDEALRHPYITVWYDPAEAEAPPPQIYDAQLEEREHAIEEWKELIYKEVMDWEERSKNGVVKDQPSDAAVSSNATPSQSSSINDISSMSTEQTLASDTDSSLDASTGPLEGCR
Chain of AKT1 (human), P31749 [S473D] (P31749 whole entry S473D, looked up): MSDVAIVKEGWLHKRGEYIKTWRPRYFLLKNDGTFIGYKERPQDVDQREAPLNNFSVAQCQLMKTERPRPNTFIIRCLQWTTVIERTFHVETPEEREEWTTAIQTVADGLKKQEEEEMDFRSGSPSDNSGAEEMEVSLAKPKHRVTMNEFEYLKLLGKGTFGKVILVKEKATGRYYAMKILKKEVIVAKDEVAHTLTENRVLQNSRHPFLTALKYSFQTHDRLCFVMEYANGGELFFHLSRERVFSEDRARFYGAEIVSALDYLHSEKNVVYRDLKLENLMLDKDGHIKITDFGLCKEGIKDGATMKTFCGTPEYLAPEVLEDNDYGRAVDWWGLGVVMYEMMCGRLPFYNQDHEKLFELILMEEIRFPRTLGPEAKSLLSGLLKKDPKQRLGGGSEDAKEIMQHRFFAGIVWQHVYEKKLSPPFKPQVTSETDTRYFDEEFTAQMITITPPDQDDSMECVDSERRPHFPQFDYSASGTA
Chain of MAPK11 (human) (Q15759 whole entry, looked up): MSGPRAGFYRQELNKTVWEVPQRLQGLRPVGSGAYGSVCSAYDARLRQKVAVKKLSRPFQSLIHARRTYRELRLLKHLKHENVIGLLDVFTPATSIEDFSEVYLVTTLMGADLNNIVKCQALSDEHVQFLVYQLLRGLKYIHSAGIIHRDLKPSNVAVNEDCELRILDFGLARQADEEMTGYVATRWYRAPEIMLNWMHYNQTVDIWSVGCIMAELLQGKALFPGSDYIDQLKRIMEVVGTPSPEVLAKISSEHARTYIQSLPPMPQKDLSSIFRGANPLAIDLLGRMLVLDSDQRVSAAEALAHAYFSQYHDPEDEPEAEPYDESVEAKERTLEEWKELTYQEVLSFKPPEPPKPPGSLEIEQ

Regarding `Cc1ccc(NC(=O)c2cccc(N(C)C)c2)cc1NC(=O)c1ccc(O)cc1`, the residual activity in assay [1] was determined as 8%.

On to `NC(=O)c1ccc(-c2nc(-c3ccccn3)c(-c3ccc4c(c3)OCCO4)[nH]2)cc1`, for which the residual activity in assay [2] and in [3] was 107% each time.

As to `CC(C)(C)n1nc(-c2cccc3ccccc23)c2c(N)ncnc21`, the residual activity in assay [4] (compound 1.0 µM) turned out to be 20%.

In the case of `COc1cc(OC)c(/C=C2\C(=O)Nc3ccccc32)c(OC)c1`, the residual activity in [5] was found to be 101%.

In the case of `CC[C@@H](CO)Nc1nc(NCc2ccccc2)c2ncn(C(C)C)c2n1`, the residual activity in assay [6] was found to be 92%; in [7], 94%; in [8], 74%; in [9] (ATP 20 µM) it was 80%; in assay [9] (ATP 50 µM) it was 90%; in assay [10], 93%. The residual activity in [11] is 82%.

For `COc1ccc2c(c1)[nH]c1c(C)nccc12`, the residual activity in assay [12] turned out to be 60%.

Consider `CN(C)S(=O)(=O)c1ccc2c(c1)/C(=C/c1cc3c([nH]1)CCCC3)C(=O)N2`, for which the concentration for half-maximal inhibition (IC50) in assay [4] was 100 nM.

For orientation: residual activity means the signal under treatment as a percentage of the control signal. As a reminder, the IC50 is the concentration at which inhibition is half-maximal. The low end stands for greater potency in that assay, the high end for weaker potency in that assay.

For the origin of these results see the kinase profiling compilation of Christmann-Franck et al. (2016).
